The test concerns MV4-11 cells. Briefly: Cell proliferation assay MV4;11 (CellTiter-Glo, 72 hours). In kind it is cell-based. As to conditions: Homo sapiens; MV4;11 leukemia cell line, 72 hours; read-out: MV4; 11 IC50. The gist of the method: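 MV4-11 cells (MLL1-AF4 fusion) exposed 72 h at 37 °C to 8 compound concentrations, final 0.632–2000 nM. Viability by CellTiter-Glo luminescence as % of vehicle RLU; % max inhibition = 100 − viability at top concentration.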

Regarding `CCN(C(=O)c1cc(F)ccc1Oc1cncnc1N1CC2(CCN(C[C@@H]3CC[C@@H](NS(=O)(=O)c4ccccc4)CO3)CC2)C1)C(C)C` [Example 45, N-Ethyl-5-fluoro-N-isopropyl-2-((4-(7-(((2S,5R)-5-(phenylsulfonamido)tetrahydro-2H-pyran-2-yl)methyl)-2,7-diazaspiro[3.5]nonan-2-yl)pyrimidin-5-yl)oxy)benzamide], the IC50 is less than 100 nM. The value for `CCS(=O)(=O)N[C@@H]1CC[C@@H](CN2CCC3(CC2)CN(c2ncncc2Oc2ccc(F)cc2C(=O)N(C(C)C)[C@@H]2CCOC2)C3)OC1` [Example 46, 2-((4-(7-(((2S,5R)-5-(Ethylsulfonamido)tetrahydro-2H-pyran-2-yl)methyl)-2,7-diazaspiro[3.5]nonan-2-yl)pyrimidin-5-yl)oxy)-5-fluoro-N-isopropyl-N-((R)-tetrahydrofuran-3-yl)benzamide] was less than 100 nM; that for `CC(C)N(CC(F)F)C(=O)c1cc(F)ccc1Oc1cncnc1N1CC2(CCN(C[C@@H]3CC[C@@H](NS(=O)(=O)C4CC4)CO3)CC2)C1` [Example 47, 2-((4-(7-(((2S,5R)-5-(Cyclopropanesulfonamido)tetrahydro-2H-pyran-2-yl)methyl)-2,7-diazaspiro[3.5]nonan-2-yl)pyrimidin-5-yl)oxy)-N-(2,2-difluoroethyl)-5-fluoro-N-isopropylbenzamide] was less than 100 nM; that for `CCS(=O)(=O)N[C@@H]1CC[C@@H](CN2CCC3(CC2)CN(c2ncncc2Oc2ccc(F)cc2C(=O)N(C(C)C)C2COC2)C3)OC1` [Example 48, 2-((4-(7-(((2S,5R)-5-(Ethylsulfonamido)tetrahydro-2H-pyran-2-yl)methyl)-2,7-diazaspiro[3.5]nonan-2-yl)pyrimidin-5-yl)oxy)-5-fluoro-N-isopropyl-N-(oxetan-3-yl)benzamide] was less than 100 nM.

`CCN(C(=O)c1cc(F)ccc1Oc1cncnc1N1CC2(CCN(C[C@@H]3CC[C@@H](NS(=O)(=O)N(C)C)CO3)CC2)C1)C(C)C` [Example 49, 2-((4-(7-(((2S,5R)-5-((N,N-Dimethylsulfamoyl)amino)tetrahydro-2H-pyran-2-yl)methyl)-2,7-diazaspiro[3.5]nonan-2-yl)pyrimidin-5-yl)oxy)-N-ethyl-5-fluoro-N-isopropylbenzamide]: the IC50 is less than 100 nM. The value for `COCCN(C(=O)c1cc(F)ccc1Oc1cncnc1N1CC2(CCN(C[C@@H]3CC[C@@H](NS(=O)(=O)C4CC4)CO3)CC2)C1)C(C)C` [Example 51, 2-((4-(7-(((2S,5R)-5-(Cyclopropanesulfonamido)tetrahydro-2H-pyran-2-yl)methyl)-2,7-diazaspiro[3.5]nonan-2-yl)pyrimidin-5-yl)oxy)-5-fluoro-N-isopropyl-N-(2-methoxyethyl)benzamide] was less than 100 nM; that for `CCN(C(=O)c1cc(F)ccc1Oc1cncnc1N1CC2(CCN(C[C@@H]3CC[C@@H](NS(=O)(=O)c4ccc(C)cc4)CO3)CC2)C1)C(C)C` [Example 55, N-Ethyl-5-fluoro-N-isopropyl-2-((4-(7-(((2S,5R)-5-((4-methylphenyl)sulfonamido)tetrahydro-2H-pyran-2-yl)methyl)-2,7-diazaspiro[3.5]nonan-2-yl)pyrimidin-5-yl)oxy)benzamide] was less than 100 nM; that for `CCN(C(=O)c1cc(F)ccc1Oc1cncnc1N1CC2(CCN(C[C@@H]3CC[C@@H](NS(=O)(=O)c4ccccc4C)CO3)CC2)C1)C(C)C` [Example 56, N-Ethyl-5-fluoro-N-isopropyl-2-((4-(7-(((2S,5R)-5-((2-methylphenyl)sulfonamido)tetrahydro-2H-pyran-2-yl)methyl)-2,7-diazaspiro[3.5]nonan-2-yl)pyrimidin-5-yl)oxy)benzamide] was less than 100 nM. Consider `CCN(C(=O)c1cc(F)ccc1Oc1cncnc1N1CC2(CCN(C[C@@H]3CC[C@@H](NS(=O)(=O)c4cccc(Cl)c4)CO3)CC2)C1)C(C)C` [Example 57, 2-((4-(7-(((2S,5R)-5-((3-Chlorophenyl)sulfonamido)tetrahydro-2H-pyran-2-yl)methyl)-2,7-diazaspiro[3.5]nonan-2-yl)pyrimidin-5-yl)oxy)-N-ethyl-5-fluoro-N-isopropylbenzamide], for which the IC50 was less than 100 nM.
